# How the values were obtained:
# Conditions in all cases: 72 h
# Caco-2 [1] = experiment: relative viability EC50 (midpoint between 100% and the lowest measured viability); higher = less toxic
# Vero E6 [2] = experiment: as above
# U2OS [3] = experiment: as above
# HepG2 [4] = experiment: as above
# Calu-3 [5] = experiment: as above
# Caco-2 [6] = experiment: drug sensitivity score (DSS) for viability; higher = more toxic; extreme values may be limits of the assay
# Vero E6 [7] = experiment: as above
# U2OS [8] = experiment: as above
# HepG2 [9] = experiment: as above
# Calu-3 [10] = experiment: as above
# Caco-2 [11] = experiment: cell viability relative to DMSO; higher = less toxic
# Vero E6 [12] = experiment: as above
# U2OS [13] = experiment: as above
# HepG2 [14] = experiment: as above
# Calu-3 [15] = experiment: as above
Structure (SMILES),relative viability EC50 (Caco-2 [1]) [µM],relative viability EC50 (Vero E6 [2]) [µM],relative viability EC50 (U2OS [3]) [µM],relative viability EC50 (HepG2 [4]) [µM],relative viability EC50 (Calu-3 [5]) [µM],drug sensitivity score (Caco-2 [6]),drug sensitivity score (Vero E6 [7]),drug sensitivity score (U2OS [8]),drug sensitivity score (HepG2 [9]),drug sensitivity score (Calu-3 [10]),cell viability (Caco-2 [11]; 1 nM) [%],cell viability (Caco-2 [11]; 10 nM) [%],cell viability (Caco-2 [11]; 100 nM) [%],cell viability (Caco-2 [11]; 1000 nM) [%],cell viability (Caco-2 [11]; 10000 nM) [%],cell viability (Vero E6 [12]; 1 nM) [%],cell viability (Vero E6 [12]; 10 nM) [%],cell viability (Vero E6 [12]; 100 nM) [%],cell viability (Vero E6 [12]; 1000 nM) [%],cell viability (Vero E6 [12]; 10000 nM) [%],cell viability (U2OS [13]; 1 nM) [%],cell viability (U2OS [13]; 10 nM) [%],cell viability (U2OS [13]; 100 nM) [%],cell viability (U2OS [13]; 1000 nM) [%],cell viability (U2OS [13]; 10000 nM) [%],cell viability (HepG2 [14]; 1 nM) [%],cell viability (HepG2 [14]; 10 nM) [%],cell viability (HepG2 [14]; 100 nM) [%],cell viability (HepG2 [14]; 1000 nM) [%],cell viability (HepG2 [14]; 10000 nM) [%],cell viability (Calu-3 [15]; 1 nM) [%],cell viability (Calu-3 [15]; 10 nM) [%],cell viability (Calu-3 [15]; 100 nM) [%],cell viability (Calu-3 [15]; 1000 nM) [%],cell viability (Calu-3 [15]; 10000 nM) [%]
CCCCCCCCCCCCCCCC(=O)C(F)(F)F [PACOCF3],> 10,> 10,> 10,> 10,> 10,0,0,0,0,0,101,98.6,104,92.3,96.8,101,101,96.6,102,101,107,103,106,97.2,102,99.6,108,102,104,105,99.6,93.5,91.2,83.2,102
Oc1ccc(-c2c(-c3ccccc3)nn3c(C(F)(F)F)cc(C(F)(F)F)nc23)cc1 [PHTPP],> 10,> 10,> 10,> 10,> 10,0,0,0,0,0,104,100,99.1,102,95.9,105,109,95.8,105,96.5,99.5,96.5,102,99.2,100,104,95.5,83.4,103,88.7,98.5,94.6,97.4,91.3,113
C[C@]12CC[C@H](O)CC1=CC[C@@H]1[C@@H]2CC[C@]2(C)C(=O)CC[C@@H]12 [PRASTERONE],> 10,> 10,> 10,> 10,> 10,0,0,0,0,0,96.8,99.4,91.4,100,92.6,99.5,101,98.7,98.7,95.2,97.4,102,102,97.5,100,104,101,94.2,92.3,92.2,94.9,81.2,98.3,96.6,108
CC(C)NCCCn1c(Sc2cc3c(cc2I)OCO3)nc2c(N)ncnc21 [PU-H71],1.02,2.27,0.686,0.186,0.634,6.2,4.9,12.9,20.8,8.5,89.9,104,106,74,47.1,102,105,105,92.8,33.2,94.4,97.5,95.6,37.8,3.8,101,95.3,82.8,0.3,0.4,97.7,107,100,55.3,41.1
CCc1nc2ccc(Cl)cn2c1C(=O)NCc1ccc(N2CCC(c3ccc(OC(F)(F)F)cc3)CC2)cc1 [Q-203],> 10,> 10,> 10,> 10,> 10,0.1,0,0,0.1,0,97.3,95.9,97.1,93.5,85.3,107,100,99.9,98.8,96.5,98.6,101,97.8,97.4,99.8,106,108,92.1,100,86.8,99.7,100,104,99.6,104
CN1Cc2c(C(=O)OC(C)(C)C)ncn2-c2ccsc2C1=O [Ro-19-4605],> 10,> 10,> 10,> 10,> 10,0,0,0,0,0,98.8,102,101,100,103,101,96.4,103,96.8,103,94.5,92.8,95.4,102,97.2,105,96.9,115,96.6,108,96.9,98,89,103,99.3
Cc1cc(C)cc(NC(=O)Nc2ccc(OS(N)(=O)=O)cc2)c1 [S4],> 10,> 10,> 10,> 10,> 10,0,0,0,0,0,105,97.6,99.3,87.4,101,102,103,103,103,96.6,102,96.9,100,98.1,99,107,99.3,104,108,97.2,104,104,92.7,100,89.5
CN1CCC[C@@H]1CCSc1ccc(O)cc1 [SIB-1553A],> 10,> 10,> 10,> 10,> 10,0,0,0,0,0,94.4,100,99.7,102,105,106,95.7,97.5,96,104,97.9,101,97.1,101,106,95,88.9,95.4,88.1,111,98.7,103,98.6,91.6,99.3
C=CCNc1ncnc2ccc(Br)cc12 [SMER-28],> 10,> 10,> 10,> 10,> 10,0,0,0,0.6,0.4,99.5,93.4,98.7,103,91.2,93.6,98.3,95.8,99.8,101,101,97,102,96.9,101,92.3,98,102,102,78.8,101,103,96.1,100,82.7
Cc1nc(-c2cccnc2)sc1C(=O)Nc1ccccc1-c1cn2c(CN3CCOCC3)csc2n1 [SRT2104],> 10,> 10,> 10,> 10,> 10,0,0,0,0,0,90.6,92.2,104,99.2,102,98,94.9,92.9,90.8,106,95.5,104,94.6,101,99.2,100,92.8,98.8,90.6,108,93.6,98.8,102,104,112
CCS(=O)(=O)c1cccc(-c2cc(C(=O)NC3CCN(C)CC3)c(C)c3[nH]c4ncc(C)cc4c23)c1 [TAK-901],1.06,> 10,1.43,0.439,1.28,6.7,1.1,8.9,12.7,8,98.4,99.7,90.4,72,36.5,105,100,100,97,78.7,98.3,98.5,98.9,73.6,9.3,94.1,104,76.5,48.1,15.7,108,100,95.5,69.9,21.3
FC(F)(F)c1ccccc1-c1cc(C(F)(F)F)c2[nH]c(C3=NOC4(CCCCC4)C3)nc2c1 [TC-I-2014],> 10,> 10,> 10,> 10,> 10,0,0,0,0,0,91.9,95.5,96.8,93.4,89.8,95.6,98.8,90.1,94.8,89.5,106,103,103,100,90.7,91.6,103,97.4,98.4,89.3,112,105,97.7,99.8,97.7
CC(C)c1ccccc1Cc1cc(C(=O)Nc2ccc(S(=O)(=O)c3ccccc3C(C)(C)C)cc2)c(O)c(O)c1O [TW-37],0.557,0.746,0.654,0.704,1.75,13.1,12,13,10.6,6.2,88.7,89.7,93.5,36.7,9.2,92.1,102,96.1,43.2,7.7,102,94.7,95.7,36.5,4.6,98.8,98.6,96.1,49.6,20.3,107,98.1,107,86,28.8
CC(C)C(=O)c1ccc(O)c(O)c1 [U-0521],> 10,> 10,> 10,> 10,> 10,0.5,0,0,0,0,98.6,102,101,88,97,108,104,102,97.6,92.9,99.8,95.4,100,97.3,93.6,96.3,77.3,109,114,105,102,96.9,102,94.4,97.4
CCCN(CCC)[C@@H]1CCc2c(OC)cccc2[C@@H]1C [UH-232-(+)],> 10,> 10,> 10,> 10,> 10,0,0,0,0,0,95.6,100,97.1,93.6,92.7,95.9,102,96.5,101,100,108,106,104,101,99.4,97.7,103,87.2,102,95.8,102,104,103,102,95
